Laboratory results from patent US20220251105A1, “METHODS OF TREATING A MK2-MEDIATED DISORDER” (Celgene CAR LLC, priority 2019, published 2022).

Experiments:
CAIA in BALB/c mice = experiment: collagen antibody-induced arthritis (CAIA) model; assay type: in vivo, mouse
in vivo = conditions: HLA-B27/Huβ2m transgenic, rat, plasma, po
Source text: In each disease model, steady-state pharmacokinetics were characterized.

[1] = 91-day repeat-dose toxicology study with mice; assay type: in vivo, mouse; conditions: mouse, in vivo, 91-day
mice = experiment: 91-day repeat-dose toxicology study with mice; assay type: in vivo, mouse; conditions: 750 mg/kg/day
[2] = toxicokinetics, 28-day mouse study; assay type: in vivo; conditions: mice; for AUC / Cmax: Crl:CD1 (ICR), mouse, plasma, po;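 for AUCLST: AUC to the last measurable time point (AUClast)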
Source text: There were no notable sex-related differences in Compound 1 exposure.
Additionally, toxicokinetic animals received the vehicle or compound in the same manner and dose levels as the main study groups.

[3] = toxicokinetics, exploratory 14-day mouse study; assay type: in vivo; conditions: both sexes, CD-1, mouse, plasma, po, mice, read-out: Mean Day 14 AUC0-last
Procedure: A single oral dose study with a 14-day repeat-dose phase was conducted in male and female mice. 250 mg/kg was selected as the highest dose for the repeat dose portion of the study.

[4] = system: Imiquimod ear swelling in BALB/c mice; experiment: imiquimod-induced ear swelling model; assay type: in vivo, mouse
[5] = system: Ankylosing spondylitis in HLA B27 Tg rat; experiment: HLA-B27/Huβ2m transgenic rat model of ankylosing spondylitis
Source text: Etanercept and tofactinib (Balagué et al. Profiling of dihydroorotate dehydrogenase, p38 and JAK inhibitors in the rat adjuvant-induced arthritis model: a translational study. Br J Pharmacol. 2012 June; 166(4):1320-32) were included in this rat study as comparator molecules.

[6] = single oral dose pharmacokinetics in CD-1 mice; assay type: in vivo, mouse
Procedure: In vitro and in vivo studies were conducted to characterize the absorption, PK, distribution, and metabolism of Compound 1. […] Additionally, plasma samples from single dose PK studies in mice and monkeys were evaluated for circulating metabolites.

[7] = 28- and 91-day toxicology studies in cynomolgus monkeys; conditions: cynomolgus monkey, in vivo, oral
[8] = toxicokinetics, single dose and 14-day monkey study; assay type: in vivo; conditions: cynomolgus monkey, plasma, po, monkeys
Procedure: In cynomolgus monkeys, a 7-day repeat dose toxicity study was conducted with doses up to 250 mg/kg/day. […] To aid in dose selection for a subsequent pivotal study, an additional study was conducted to determine the maximum feasible dose under optimal feeding conditions in cynomolgus monkeys. […] Dosing monkeys in the fasted state prior to dosing yielded more consistently higher exposures. Therefore, a dose of 375 mg/kg in 0.5% methyl cellulose (400 cps) and 0.1% Tween 80 administered to fasted monkeys was selected for the 14-day repeat-dose phase of the study, and was considered the maximum feasible dose.

healthy adult subjects = experiment: Phase 1 first in human study, safety and tolerability; assay type: in vivo
Procedure: The 2 sentinel subjects (chosen according to a randomization scheme) were dosed on Day 1. After at least 24 hours, the safety profile was acceptable to the Investigator (based on, at minimum, adverse events [AEs], concomitant medications and procedures, and any other important clinical observations), and the remainder of the cohort was dosed according to the randomization schedule.
The same total daily dose was then administered for the remainder of the planned treatment schedule (Days 2 to 14, inclusive).
Results. This study was a Phase 1, three-part study with a double-blind, placebo-controlled, single ascending dose (SAD) phase, a double-blind multiple ascending dose (MAD) phase, and an open-label cross-over food effect phase. The study enrolled a total of 97 healthy adult subjects.

[9] = Phase 1 first in human study, pharmacokinetics; assay type: in vivo
[10] = female, 15 mg/kg/day, Study Day 1, female, 15 mg/kg/day
[11] = female, 15 mg/kg/day, Study Day 21, female, 15 mg/kg/day
[12] = female, 100 mg/kg/day, Study Day 1, female, 100 mg/kg/day
[13] = female, 100 mg/kg/day, Study Day 21, female, 100 mg/kg/day
[14] = female, 750 mg/kg/day, Study Day 1, female, 750 mg/kg/day
[15] = female, 750 mg/kg/day, Study Day 21, female, 750 mg/kg/day
[16] = male, 15 mg/kg/day, Study Day 1, male, 15 mg/kg/day
[17] = male, 15 mg/kg/day, Study Day 21, male, 15 mg/kg/day
[18] = male, 100 mg/kg/day, Study Day 1, male, 100 mg/kg/day
[19] = male, 100 mg/kg/day, Study Day 21, male, 100 mg/kg/day
[20] = male, 750 mg/kg/day, Study Day 1, male, 750 mg/kg/day
[21] = male, 750 mg/kg/day, Study Day 21, male, 750 mg/kg/day
[22] = CD-1, plasma, mouse, female, single oral 15 mg/kg
[23] = CD-1, plasma, mouse, female, single oral 100 mg/kg
[24] = CD-1, plasma, mouse, male, single oral 15 mg/kg
[25] = CD-1, plasma, mouse, male, single oral 100 mg/kg

SMILES: CCOCc1cnc(Cl)nc1Oc1ccc2c(ccc3sc4c(c32)NC[C@@H](C)NC4=O)n1 [Compound 1]
- % Inhibition, paw swelling (CAIA in BALB/c mice; 3 mg/kg, last day of dosing): 89.7% paw
- Minimally Efficacious Dose (CAIA in BALB/c mice; endpoint paw swelling): 3 mg/kg
- AUC (in vivo; 20 mg/kg): 2820 ng·h/mL
- AUC (in vivo; 100 mg/kg): 7190 ng·h/mL
- NOAEL at 91 days [1]: 100 mg/kg/day
- finding on which the NOAEL was based (mice): microscopic findings in the heart
- AUC [2, 10]: 5360 ng·h/mL
- Cmax [2, 10]: 2980 ng/mL
- AUC [2, 11]: 5980 ng·h/mL
- Cmax [2, 11]: 2970 ng/mL
- AUC [2, 12]: 40100 ng·h/mL
- Cmax [2, 12]: 14500 ng/mL
- AUC [2, 13]: 32800 ng·h/mL
- Cmax [2, 13]: 12300 ng/mL
- AUC [2, 14]: 198000 ng·h/mL
- Cmax [2, 14]: 50300 ng/mL
- AUC [2, 15]: 135000 ng·h/mL
- Cmax [2, 15]: 23200 ng/mL
- AUC [2, 16]: 4410 ng·h/mL
- Cmax [2, 16]: 2930 ng/mL
- AUC [2, 17]: 4460 ng·h/mL
- Cmax [2, 17]: 2420 ng/mL
- AUC [2, 18]: 29200 ng·h/mL
- Cmax [2, 18]: 13900 ng/mL
- AUC [2, 19]: 24900 ng·h/mL
- Cmax [2, 19]: 11700 ng/mL
- AUC [2, 20]: 211000 ng·h/mL
- Cmax [2, 20]: 29800 ng/mL
- AUC [2, 21]: 92800 ng·h/mL
- Cmax [2, 21]: 19400 ng/mL
- dose proportionality of systemic exposure (AUCLST) ([2]; Day 1, 15 to 750 mg/kg/day): approximately dose-proportional manner
- dose proportionality of systemic exposure (AUCLST) ([2]; Day 21, 15 to 750 mg/kg/day): less than dose-proportional manner
- AUC(0-t) ([3]; 15 mg/kg/day): 4820 ng·h/mL
- AUC(0-t) ([3]; 75 mg/kg/day): 16600 ng·h/mL
- AUC(0-t) ([3]; 250 mg/kg/day): 35100 ng·h/mL
- % Inhibition by ear thickness clinical score ([4]; 3 mg/kg, from area under the ear thickness-time curve): 57% by ear
- Minimally Efficacious Dose ([4]; endpoint ear thickness): 3 mg/kg
- Paw Swelling Inhibition (%) ([5]; 100 mg/kg daily oral gavage): 65%
- dose dependence of inhibition of paw swelling ([5]; 20 and 100 mg/kg): dose-dependent inhibition of paw swelling
- cytokines IL-7, IL-1β; chemokines MCP-1, MIP-1α, KC; GM-CSF ([5]; HLA-B27/Huβ2m rats): A trend towards decreases
- Minimally Efficacious Dose (lowest tested dose determined to be effective) ([5]; endpoint paw score): 20 mg/kg
- AUC [6, 22]: 5170 ng·h/mL
- AUC(0-inf) [6, 22]: 5250 ng·h/mL
- Cmax [6, 22]: 1980 ng/mL
- Tmax ([6]; CD-1, plasma, mouse, female, single oral 15 mg/kg, read-out: tmax): 30 min
- AUC [6, 23]: 28200 ng·h/mL
- AUC(0-inf) [6, 23]: 28400 ng·h/mL
- Cmax [6, 23]: 8080 ng/mL
- Tmax ([6]; CD-1, plasma, mouse, female, single oral 100 mg/kg, read-out: tmax): 15 min
- AUC [6, 24]: 2870 ng·h/mL
- AUC(0-inf) [6, 24]: 3040 ng·h/mL
- Cmax [6, 24]: 1270 ng/mL
- Tmax ([6]; CD-1, plasma, mouse, male, single oral 15 mg/kg, read-out: tmax): 15 min
- AUC [6, 25]: 19200 ng·h/mL
- AUC(0-inf) [6, 25]: 19200 ng·h/mL
- Cmax [6, 25]: 6600 ng/mL
- Tmax ([6]; CD-1, plasma, mouse, male, single oral 100 mg/kg, read-out: tmax): 30 min
- bioavailability ([6]; both sexes, CD-1, mouse, plasma, po, mice, doses in the range 15 to 375 mg/kg): 22 to 51%
- Tmax ([6]; both sexes, CD-1, mouse, plasma, mice, oral dosing, read-out: time to maximum plasma concentration (tmax)): 15 to 60 min
- F ([6]; mouse, female, single oral 15 mg/kg): 51%
- F ([6]; mouse, female, single oral 100 mg/kg): 41%
- F ([6]; mouse, male, single oral 15 mg/kg): 23%
- F ([6]; mouse, male, single oral 100 mg/kg): 22%
- NOAEL [7]: 375 mg/kg/day
- AUC(0-t) ([8]; 375 mg/kg, 375 mg/kg, fasted, read-out: Mean Day 1 AUC0-t): 11500 ng·h/mL
- AUC(0-t) ([8]; 375 mg/kg, 375 mg/kg, non-fasted, read-out: Mean Day 1 AUC0-t): 4060 ng·h/mL
- AUC(0-t) ([8]; 375 mg/kg/day, fasted, 375 mg/kg/day, read-out: Mean Day 14 AUC0-t): 5510 ng·h/mL
- AUC(0-t) ([8]; 500 mg/kg, 500 mg/kg, fasted, read-out: Mean Day 1 AUC0-t): 14300 ng·h/mL
- AUC(0-t) ([8]; 500 mg/kg, 500 mg/kg, non-fasted, read-out: Mean Day 1 AUC0-t): 11400 ng·h/mL
- most common TEAEs suspected related (skin and subcutaneous tissue disorder) (healthy adult subjects; Part 1, 400-mg dose level, 2 TEAEs in 2 subjects): mild, transient, pruritic, erythematous rash without other organ involvement
- severe TEAEs or serious adverse events (healthy adult subjects; Part 1, single doses 3 mg to 400 mg): no severe TEAEs or serious adverse events (SAEs)
- TEAEs suspected to be related to Compound 1 (healthy adult subjects; Part 1, single doses 3 mg to 400 mg, of the 22 total TEAEs): 5
- ALT elevations, other 2 subjects (healthy adult subjects; Part 2, 120 mg): less than 2 × above the upper limit of normal
- peak ALT elevation (healthy adult subjects; Part 2, 120 mg, one subject, Day 17): 2.3 ×ULN
- TEAEs suspected to be related to Compound 1 (healthy adult subjects; Part 2, 10 to 150 mg daily for 14 days, of the 42 total TEAEs): 9
- subjects with increase in serum transaminase levels (ALT) above ULN (healthy adult subjects; Part 2, 120-mg dose cohort, of 6 subjects on active treatment): 3
- transaminase level changes (healthy adult subjects; Part 2, 150-mg dose cohort, 14-day dosing period): no transaminase level changes were observed in any subject
- tolerability (healthy adult subjects; single dose up to 400 mg, 14 days up to 150 mg): well tolerated
- dose proportionality of Cmax and AUC ([9]; Day 14, multiple daily doses 10 mg to 150 mg): approximately dose-proportional manner
- effect of food on PK ([9]; current capsule formulation, fed vs fasted): limited effect
- accumulation ([9]; daily dosing for 14 days): limited to no observed accumulation
- AUC ([9]; human, in vivo, oral, humans, 150 mg, read-out: observed AUCLST): 1360 ng·h/mL
- half-life at 14 days ([9]; human, plasma, oral, Day 14, multiple daily doses 10 mg to 150 mg, read-out: t½, geometric mean): 118 to 263 min
- Tmax at 14 days ([9]; human, plasma, oral, multiple daily doses, 10 mg to 150 mg): 1 to 2.5 h
- Tmax ([9]; human, plasma, single oral dose, 3 mg to 400 mg, read-out: median Tmax): 1 to 3 h
- half-life ([9]; human, plasma, single oral dose, 3 mg to 400 mg, read-out: terminal elimination half-life (t½), geometric mean): 99.6 to 417 min
- predicted human bioavailability ([9]; prediction before food effect part): 25%
- dose proportionality of Cmax and AUC ([9]; single oral dose, 3 mg to 400 mg): approximately dose proportional manner
